In US8802597B2, “Herbicidal pyrimidines” (E I du Pont de Nemours and Company, priority 2003, dated 2014):

Key:
Format in all cases: in vivo
[1] = test system: cocklebur (Xanthium strumarium); assay: Test B pre/postemergence; details: for Cocklebur plant response rating: Postemergence; for Plant response rating, Cocklebur: Preemergence
In short: (§1)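 Under greenhouse conditions, seeded pots and young plants (1- to 4-leaf, 2 to 18 cm) were treated at the same time with test chemicals in a non-phytotoxic solvent mixture containing surfactant. Response was assessed visually after 13 to 15 days, from 0 (no effect) to 100 (complete control).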

[2] = test system: wheat (Triticum aestivum); assay: Test B pre/postemergence; details: for Wheat plant response rating: Postemergence; for Plant response rating, Wheat: Preemergence
In short: as §1

[3] = test system: giant foxtail (Setaria faberii); assay: Test B pre/postemergence; details: for Foxtail, Giant plant response rating: Postemergence; for Plant response rating, Foxtail, Giant: Preemergence
In short: as §1

[4] = test system: morningglory (Ipomoea coccinea); assay: Test B pre/postemergence; details: for Morningglory plant response rating: Postemergence; for Plant response rating, Morningglory: Preemergence
In short: as §1

[5] = test system: crabgrass (Digitaria sanguinalis); assay: Test B pre/postemergence; details: for Crabgrass plant response rating: Postemergence; for Plant response rating, Crabgrass: Preemergence
In short: as §1

[6] = test system: Surinam grass (Brachiaria decumbens); assay: Test B pre/postemergence; details: for Surinam Grass plant response rating: Postemergence; for Plant response rating, Surinam Grass: Preemergence
In short: as §1

corn (Zea mays) = assay: Test B pre/postemergence; details: for Corn plant response rating: Postemergence; for Plant response rating, Corn: Preemergence
In short: as §1

[7] = test system: lambsquarters (Chenopodium album); assay: Test B pre/postemergence; details: for Lambsquarters plant response rating: Postemergence; for Plant response rating, Lambsquarters: Preemergence
In short: as §1

[8] = test system: velvetleaf (Abutilon theophrasti); assay: Test B pre/postemergence; details: for Velvetleaf plant response rating: Postemergence; for Plant response rating, Velvetleaf: Preemergence
In short: as §1

[9] = test system: barnyardgrass (Echinochloa crus-galli); assay: Test B pre/postemergence; details: for Barnyardgrass plant response rating: Postemergence; for Plant response rating, Barnyardgrass: Preemergence
In short: as §1

[10] = test system: pigweed (Amaranthus retroflexus); assay: Test B pre/postemergence; details: for Pigweed plant response rating: Postemergence; for Plant response rating, Pigweed: Preemergence
In short: as §1

[11] = test system: umbrella sedge (Cyperus difformis); assay: Test B flooded paddy test; details: Flood, scale 0 to 100
In short: (§2)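 Plants were grown to the 2-leaf stage before treatment, then kept in a greenhouse for 13 to 15 days. Injury was rated visually against untreated controls on a 0 to 100 scale, where 0 is no effect and 100 is complete control.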

rice (Oryza sativa) = assay: Test B flooded paddy test; details: Flood, scale 0 to 100
In short: as §2

[12] = test system: barnyardgrass (Echinochloa crus-galli); assay: Test B flooded paddy test; details: Flood, scale 0 to 100
In short: as §2

[13] = test system: duck salad (Heteranthera limosa); assay: Test B flooded paddy test; details: Flood, scale 0 to 100
In short: as §2

wild oat (Avena fatua) = assay: Test B postemergence; details: scale 0 to 100 (0 no effect, 100 complete control)
In short: as §1

[14] = test system: blackgrass (Alopecurus myosuroides); assay: Test B postemergence; details: scale 0 to 100 (0 no effect, 100 complete control)
In short: as §1

[15] = 62 g ai/ha, scale 0 to 100 (0 no effect, 100 complete control)
[16] = 125 g ai/ha, scale 0 to 100 (0 no effect, 100 complete control)
[17] = 62 g ai/ha, scale 0 to 100, 0 no effect, 100 complete control

Nc1nc(C2CC2)nc(C(=O)O)c1Cl [Compound 135, 6-amino-5-chloro-2-cyclopropyl-4-pyrimidinecarboxylic acid]
60: Wheat plant response rating [2, 16] | Plant response rating, Foxtail, Giant [3, 17] | Crabgrass plant response rating [5, 15] | Plant response rating, Rice (rice (Oryza sativa); 500 g ai/ha) | Plant response rating, Ducksalad ([13]; 125 g ai/ha) | Oat, Wild plant response rating (wild oat (Avena fatua); 62 g ai/ha) | Oat, Wild plant response rating (wild oat (Avena fatua); 125 g ai/ha) | Blackgrass plant response rating ([14]; 62 g ai/ha)
20: Plant response rating, Rice (rice (Oryza sativa); 125 g ai/ha)
70: Plant response rating, Wheat [2, 17] | Crabgrass plant response rating [5, 16] | Barnyardgrass plant response rating [9, 15] | Plant response rating, Barnyardgrass [9, 17] | Plant response rating, Sedge, Umbrella ([11]; 125 g ai/ha) | Blackgrass plant response rating ([14]; 125 g ai/ha)
30: Plant response rating, Barnyardgrass ([12]; 125 g ai/ha)
40: Wheat plant response rating [2, 15]
90: Plant response rating, Wheat [2, 16] | Plant response rating, Foxtail, Giant [3, 16] | Plant response rating, Crabgrass [5, 16] | Plant response rating, Surinam Grass [6, 16] | Plant response rating, Velvetleaf [8, 17] | Barnyardgrass plant response rating [9, 16] | Plant response rating, Barnyardgrass [9, 16] | Plant response rating, Ducksalad ([13]; 500 g ai/ha)
80: Foxtail, Giant plant response rating [3, 15] | Foxtail, Giant plant response rating [3, 16] | Plant response rating, Crabgrass [5, 17] | Surinam Grass plant response rating [6, 15] | Surinam Grass plant response rating [6, 16] | Plant response rating, Surinam Grass [6, 17] | Corn plant response rating (corn (Zea mays); [16]) | Plant response rating, Corn (corn (Zea mays); [16]) | Plant response rating, Sedge, Umbrella ([11]; 500 g ai/ha) | Plant response rating, Barnyardgrass ([12]; 500 g ai/ha)
50: Corn plant response rating (corn (Zea mays); [15]) | Plant response rating, Corn (corn (Zea mays); [17])
100: Cocklebur plant response rating [1, 15] | Cocklebur plant response rating [1, 16] | Plant response rating, Cocklebur [1, 17] | Plant response rating, Cocklebur [1, 16] | Morningglory plant response rating [4, 15] | Morningglory plant response rating [4, 16] | Plant response rating, Morningglory [4, 17] | Plant response rating, Morningglory [4, 16] | Lambsquarters plant response rating [7, 15] | Lambsquarters plant response rating [7, 16] | Plant response rating, Lambsquarters [7, 17] | Plant response rating, Lambsquarters [7, 16] | Velvetleaf plant response rating [8, 15] | Velvetleaf plant response rating [8, 16] | Plant response rating, Velvetleaf [8, 16] | Pigweed plant response rating [10, 15] | Pigweed plant response rating [10, 16] | Plant response rating, Pigweed [10, 17] | Plant response rating, Pigweed [10, 16]

Nc1nc(-c2ccc(Cl)cc2)nc(C(=O)[O-])c1Cl.[Na+] [Compound 117]
90: Plant response rating, Cocklebur [1, 16] | Plant response rating, Foxtail, Giant [3, 16] | Plant response rating, Crabgrass [5, 17] | Plant response rating, Crabgrass [5, 16] | Corn plant response rating (corn (Zea mays); [15]) | Corn plant response rating (corn (Zea mays); [16]) | Lambsquarters plant response rating [7, 15] | Plant response rating, Lambsquarters [7, 17] | Velvetleaf plant response rating [8, 15] | Plant response rating, Velvetleaf [8, 16] | Barnyardgrass plant response rating [9, 15] | Barnyardgrass plant response rating [9, 16] | Plant response rating, Sedge, Umbrella ([11]; 500 g ai/ha)
70: Wheat plant response rating [2, 16] | Surinam Grass plant response rating [6, 15] | Surinam Grass plant response rating [6, 16] | Plant response rating, Velvetleaf [8, 17] | Plant response rating, Barnyardgrass ([12]; 500 g ai/ha) | Blackgrass plant response rating ([14]; 125 g ai/ha)
100: Cocklebur plant response rating [1, 15] | Cocklebur plant response rating [1, 16] | Morningglory plant response rating [4, 16] | Plant response rating, Surinam Grass [6, 16] | Lambsquarters plant response rating [7, 16] | Plant response rating, Lambsquarters [7, 16] | Velvetleaf plant response rating [8, 16] | Pigweed plant response rating [10, 15] | Pigweed plant response rating [10, 16] | Plant response rating, Pigweed [10, 17] | Plant response rating, Pigweed [10, 16] | Plant response rating, Ducksalad ([13]; 125 g ai/ha) | Plant response rating, Ducksalad ([13]; 500 g ai/ha)
30: Plant response rating, Barnyardgrass [9, 16] | Oat, Wild plant response rating (wild oat (Avena fatua); 62 g ai/ha)
0: Plant response rating, Corn (corn (Zea mays); [17])
10: Plant response rating, Morningglory [4, 17] | Plant response rating, Corn (corn (Zea mays); [16]) | Plant response rating, Barnyardgrass [9, 17]
50: Plant response rating, Cocklebur [1, 17] | Wheat plant response rating [2, 15] | Plant response rating, Wheat [2, 17] | Plant response rating, Rice (rice (Oryza sativa); 500 g ai/ha) | Oat, Wild plant response rating (wild oat (Avena fatua); 125 g ai/ha)
20: Plant response rating, Foxtail, Giant [3, 17] | Plant response rating, Morningglory [4, 16] | Plant response rating, Rice (rice (Oryza sativa); 125 g ai/ha) | Plant response rating, Barnyardgrass ([12]; 125 g ai/ha)
60: Crabgrass plant response rating [5, 15] | Blackgrass plant response rating ([14]; 62 g ai/ha)
80: Plant response rating, Wheat [2, 16] | Foxtail, Giant plant response rating [3, 15] | Foxtail, Giant plant response rating [3, 16] | Morningglory plant response rating [4, 15] | Crabgrass plant response rating [5, 16] | Plant response rating, Surinam Grass [6, 17] | Plant response rating, Sedge, Umbrella ([11]; 125 g ai/ha)
